Source: patent publication US10294202B2, “Pyrrolidinones as herbicides” (FMC Corporation, priority 2013, dated 2019)

Tests used:
wheat = assay: Test A pre-/postemergence herbicide test; format: in vivo, Triticum aestivum
Outline: (§1)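 Seeds sown in loam soil/sand blend received a preemergence directed soil spray of test chemical in non-phytotoxic solvent with surfactant; postemergence plants (2–10 cm, one- to two-leaf stage) were sprayed with the same formulation. After about 10 days in greenhouse, injury was rated visually versus untreated controls, 0 (no effect) to 100 (complete control).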

wheat (winter wheat) = assay: Test C pre-/postemergence herbicide test; format: in vivo, Triticum aestivum
Outline: (§2)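 Visual rating, 0 (no effect) to 100 (complete control), versus untreated controls after 13 to 15 days in the greenhouse. Pre: seeds in loam/sand, sprayed at planting. Post: 1- to 4-leaf plants (2 to 18 cm) in peat-based mix. Compounds in non-phytotoxic solvent plus surfactant.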

sedge, umbrella = assay: Test B flooded paddy test; format: in vivo, Cyperus difformis; conditions: 250 g ai/ha, Flood; scale of 0 to 100 where 0 is no effect and 100 is complete control
Outline: (§3)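 Visual ratings from 0, meaning no effect, up to 100, meaning complete control, were made by comparison with untreated controls 13 to 15 days after treatment. Test compounds went straight into floodwater standing 3 cm over the soil of pots holding 2-leaf seedlings.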

ragweed = assay: Test C pre-/postemergence herbicide test; format: in vivo, Ambrosia elatior
Outline: as §2

ducksalad = assay: Test B flooded paddy test; format: in vivo, Heteranthera limosa; conditions: 250 g ai/ha, Flood; scale of 0 to 100 where 0 is no effect and 100 is complete control
Outline: as §3

oat, wild = assay: Test C pre-/postemergence herbicide test; format: in vivo, Avena fatua
Outline: as §2

pigweed = assay: Test A pre-/postemergence herbicide test; format: in vivo, Amaranthus retroflexus
Outline: as §1

nutsedge, yellow = assay: Test C pre-/postemergence herbicide test; format: in vivo, Cyperus esculentus
Outline: as §2

soybean = assay: Test C pre-/postemergence herbicide test; format: in vivo, Glycine max
Outline: as §2

giant foxtail = assay: Test A pre-/postemergence herbicide test; format: in vivo, Setaria faberii
Outline: as §1

[1] = Postemergence, 125 g ai/ha, 0 to 100 scale, 0 no effect, 100 complete control
[2] = Postemergence, 500 g ai/ha, 0 to 100 scale (0 no effect, 100 complete control)
[3] = Preemergence, 125 g ai/ha, visual rating on 0 to 100 scale (0 no effect, 100 complete control)
[4] = preemergence, 500 g ai/ha, 0 to 100 scale
[5] = Postemergence, 31 g ai/ha, scale 0 (no effect) to 100 (complete control)
[6] = Postemergence, 62 g ai/ha, scale 0 to 100 (0 no effect, 100 complete control)
[7] = Postemergence, 125 g ai/ha, scale 0 to 100 (0 no effect, 100 complete control)
[8] = Postemergence, 250 g ai/ha, scale 0 to 100 (0 no effect, 100 complete control)
[9] = Preemergence, 62 g ai/ha, scale 0 to 100
[10] = Preemergence, 125 g ai/ha, scale 0 to 100 (0 no effect, 100 complete control)

## O=C1NCC(c2ccc(Cl)c(F)c2)C1C(=O)Nc1cccc(F)c1F (centres unmarked) [Compound 52]
wheat; [1]
  Plant response rating, Wheat: 0
wheat; [2]
  Plant response rating, Wheat: 30
wheat; [3]
  Wheat plant response rating: 0
wheat; [4]
  Plant response rating, Wheat: 0
Wheat (winter wheat); [5]
  Plant response rating, Wheat: 0
Wheat (winter wheat); [6]
  Plant response rating, Wheat: 0
Wheat (winter wheat); [7]
  Plant response rating, Wheat: 0
Wheat (winter wheat); [8]
  Plant response rating, Wheat: 0
Wheat (winter wheat); [9]
  Plant response rating, Wheat: 0
Wheat (winter wheat); [10]
  Plant response rating, Wheat: 10
sedge, umbrella
  Plant response rating, Sedge, Umbrella: 85
ragweed; [5]
  Plant response rating, Ragweed: 10
ragweed; [6]
  Plant response rating, Ragweed: 10
ragweed; [7]
  Plant response rating, Ragweed: 50
ragweed; [8]
  Plant response rating, Ragweed: 55
ragweed; [9]
  Plant response rating, Ragweed: 0
ragweed; [10]
  Plant response rating, Ragweed: 0
ducksalad
  Plant response rating, Ducksalad: 90
oat, wild; [5]
  Plant response rating, Oat, Wild: 0
oat, wild; [6]
  Plant response rating, Oat, Wild: 0
oat, wild; [7]
  Plant response rating, Oat, Wild: 0
oat, wild; [8]
  Plant response rating, Oat, Wild: 0
oat, wild; [9]
  Plant response rating, Oat, Wild: 0
oat, wild; [10]
  Plant response rating, Oat, Wild: 0
pigweed; [1]
  Plant response rating, Pigweed: 0
pigweed; [2]
  Plant response rating, Pigweed: 40
pigweed; [3]
  Pigweed plant response rating: 0
pigweed; [4]
  Plant response rating, Pigweed: 40
nutsedge, yellow; [5]
  Plant response rating, Nutsedge, Yellow: 10
nutsedge, yellow; [6]
  Plant response rating, Nutsedge, Yellow: 10
nutsedge, yellow; [7]
  Plant response rating, Nutsedge, Yellow: 10
nutsedge, yellow; [8]
  Plant response rating, Nutsedge, Yellow: 10
nutsedge, yellow; [9]
  Plant response rating, Nutsedge, Yellow: 25
nutsedge, yellow; [10]
  Plant response rating, Nutsedge, Yellow: 25
soybean; [5]
  Plant response rating, Soybean: 0
soybean; [6]
  Plant response rating, Soybean: 0
soybean; [7]
  Plant response rating, Soybean: 5
soybean; [8]
  Plant response rating, Soybean: 5
soybean; [9]
  Plant response rating, Soybean: 10
soybean; [10]
  Plant response rating, Soybean: 15
Giant foxtail; [1]
  Plant response rating, Foxtail, Giant: 80
Giant foxtail; [2]
  Plant response rating, Foxtail, Giant: 80
Giant foxtail; [3]
  Foxtail, Giant plant response rating: 80
Giant foxtail; [4]
  Plant response rating, Foxtail, Giant: 90
